ChEMBL document CHEMBL1201862, “PubChem BioAssay data set” (2004)
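Each compound was tested at five concentrations against cells in 96-well plates for 48 hours. At the GI50, growth is halved.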 The source made the active and inactive calls. Cut-off read from the data, not from the text of the source: active = GI50 up to about 1.1 µM and inactive = higher.

Key:
Experiment in all cases: DTP human tumour cell line panel, 48 h
U-251 = tested on: U-251
SNB-78 = tested on: SNB-78
OVCAR-3 = tested on: OVCAR-3
RPMI-8226 = tested on: RPMI-8226
OVCAR-5 = tested on: OVCAR-5
KM-20L2 = tested on: KM-20L2
CCRF-CEM = tested on: CCRF-CEM
UACC-62 = tested on: UACC-62
CAKI-1 = tested on: CAKI-1
XF498 = tested on: XF498
786-0 = tested on: 786-0
SK-MEL-2 = tested on: SK-MEL-2
HT-29 = tested on: HT-29
IGROV-1 = tested on: IGROV-1
HOP-92 = tested on: HOP-92
HCT-116 = tested on: HCT-116
SNB-75 = tested on: SNB-75

Measured: GI50

COc1ccc2c(c1)CC[C@@H]1C2CC[C@]2(C)C(=N\O)/C(=N/O)CC12 (some centres undefined)
inactive: U-251 15.4 µM | SNB-78 17 µM | OVCAR-3 12.4 µM | RPMI-8226 9.31 µM | OVCAR-5 12.4 µM | KM-20L2 6.21 µM | CCRF-CEM 9.68 µM | UACC-62 13.4 µM | CAKI-1 10.7 µM | XF498 14.5 µM | 786-0 17.5 µM | SK-MEL-2 13.1 µM | HT-29 2.24 µM | IGROV-1 3.64 µM | HOP-92 16.1 µM | HCT-116 16 µM

O=C1c2cccc(O)c2C(=O)c2c(O)cccc21 [DANTHRON]
inactive: U-251 69.3 µM | SNB-78 > 100 µM | OVCAR-3 28.3 µM | RPMI-8226 50.7 µM | OVCAR-5 > 100 µM | KM-20L2 99.1 µM | CCRF-CEM > 100 µM | UACC-62 16 µM | CAKI-1 33.7 µM | SNB-75 > 100 µM | XF498 > 100 µM | 786-0 > 100 µM | SK-MEL-2 > 100 µM | HT-29 35.8 µM | IGROV-1 > 100 µM | HOP-92 > 100 µM | HCT-116 49 µM

Nc1ncnc2c1N=CN(Oc1ccccc1)N2
inactive: U-251 > 100 µM | SNB-78 > 100 µM | OVCAR-3 > 100 µM | RPMI-8226 > 100 µM | OVCAR-5 > 100 µM | KM-20L2 > 100 µM | UACC-62 > 100 µM | CAKI-1 > 100 µM | SNB-75 14 µM | XF498 > 100 µM | 786-0 > 100 µM | SK-MEL-2 > 100 µM | HT-29 > 100 µM | IGROV-1 > 100 µM | HOP-92 > 100 µM | HCT-116 > 100 µM

CCOC(=O)c1cn2c([nH]c3ccccc32)c(C#N)c1=O
inactive: U-251 > 100 µM | SNB-78 > 100 µM | OVCAR-3 > 100 µM | OVCAR-5 > 100 µM | KM-20L2 > 100 µM | CCRF-CEM 52.4 µM | UACC-62 > 100 µM | CAKI-1 > 100 µM | SNB-75 > 100 µM | XF498 > 100 µM | 786-0 > 100 µM | SK-MEL-2 > 100 µM | HT-29 > 100 µM | IGROV-1 > 100 µM | HOP-92 > 100 µM | HCT-116 80.4 µM

COc1ccc2cc3nc(O)cc(O)c3cc2c1OC
inactive: U-251 > 100 µM | SNB-78 > 100 µM | OVCAR-3 > 100 µM | RPMI-8226 > 100 µM | OVCAR-5 > 100 µM | KM-20L2 > 100 µM | CCRF-CEM > 100 µM | UACC-62 > 100 µM | CAKI-1 > 100 µM | SNB-75 > 100 µM | XF498 > 100 µM | 786-0 > 100 µM | SK-MEL-2 > 100 µM | HT-29 > 100 µM | IGROV-1 > 100 µM | HOP-92 > 100 µM | HCT-116 > 100 µM

CCCSS[C@H]1NC(=O)[C@H]1NC(=O)COc1ccccc1
inactive: U-251 17.7 µM | SNB-78 25.8 µM | OVCAR-3 17.3 µM | RPMI-8226 14 µM | OVCAR-5 59 µM | KM-20L2 20.9 µM | CCRF-CEM 3.85 µM | UACC-62 17.9 µM | CAKI-1 17.3 µM | SNB-75 21.1 µM | XF498 17.8 µM | 786-0 17.4 µM | SK-MEL-2 17.9 µM | HT-29 19.8 µM | IGROV-1 21.1 µM | HOP-92 10.4 µM | HCT-116 10.3 µM

CN(C)CC/[N+]([O-])=C(/c1ccccc1)C12CC3CC(CC(C3)C1)C2
inactive: U-251 16 µM | SNB-78 19 µM | OVCAR-3 14.7 µM | RPMI-8226 17.7 µM | OVCAR-5 17.7 µM | KM-20L2 11.5 µM | CCRF-CEM 15.8 µM | UACC-62 14 µM | CAKI-1 17 µM | SNB-75 11.9 µM | XF498 13.2 µM | 786-0 13.5 µM | SK-MEL-2 18.2 µM | HT-29 11 µM | IGROV-1 18.5 µM | HOP-92 14.1 µM | HCT-116 17.9 µM

Fc1ccc2c(c1)SC1Oc3ccccc3-c3c1c-2nn3-c1ccccc1 (centres undefined)
inactive: U-251 > 100 µM | SNB-78 > 100 µM | OVCAR-3 > 100 µM | RPMI-8226 > 100 µM | OVCAR-5 > 100 µM | KM-20L2 > 100 µM | CCRF-CEM > 100 µM | SNB-75 86.7 µM | XF498 > 100 µM | 786-0 > 100 µM | SK-MEL-2 > 100 µM | HT-29 > 100 µM | IGROV-1 > 100 µM | HOP-92 > 100 µM | HCT-116 66.8 µM

[O-][n+]1c(-c2ccccc2)c2nc3ccccc3nc2c2ccccc21
inactive: U-251 > 100 µM | SNB-78 27.5 µM | OVCAR-3 > 100 µM | RPMI-8226 > 100 µM | OVCAR-5 > 100 µM | KM-20L2 > 100 µM | CCRF-CEM > 100 µM | UACC-62 > 100 µM | CAKI-1 > 100 µM | SNB-75 31.1 µM | XF498 > 100 µM | 786-0 > 100 µM | SK-MEL-2 > 100 µM | HT-29 > 100 µM | IGROV-1 > 100 µM | HOP-92 > 100 µM | HCT-116 > 100 µM

O=C1CCCC/C1=C1\C(=O)Nc2cc(F)ccc21
inactive: U-251 > 100 µM | SNB-78 > 100 µM | RPMI-8226 > 100 µM | OVCAR-5 > 100 µM | KM-20L2 > 100 µM | CCRF-CEM > 100 µM | UACC-62 > 100 µM | CAKI-1 > 100 µM | SNB-75 > 100 µM | XF498 > 100 µM | 786-0 > 100 µM | SK-MEL-2 > 100 µM | HT-29 > 100 µM | IGROV-1 > 100 µM | HOP-92 > 100 µM | HCT-116 > 100 µM

COc1ccc(CN2CC(C)(C)C2=O)c(OC)c1
inactive: U-251 > 100 µM | SNB-78 > 100 µM | OVCAR-3 > 100 µM | RPMI-8226 > 100 µM | KM-20L2 > 100 µM | CCRF-CEM > 100 µM | UACC-62 > 100 µM | SNB-75 70.8 µM | XF498 > 100 µM | 786-0 > 100 µM | SK-MEL-2 > 100 µM | HT-29 > 100 µM | IGROV-1 > 100 µM | HOP-92 > 100 µM | HCT-116 > 100 µM

Clc1ccccc1C1=NN(c2ccccc2)C2c3cc(Br)ccc3OCC12 (centres undefined)
inactive: U-251 > 100 µM | SNB-78 > 100 µM | OVCAR-3 > 100 µM | RPMI-8226 67.9 µM | OVCAR-5 > 100 µM | KM-20L2 > 100 µM | CCRF-CEM > 100 µM | SNB-75 > 100 µM | XF498 > 100 µM | 786-0 > 100 µM | SK-MEL-2 > 100 µM | HT-29 > 100 µM | IGROV-1 > 100 µM | HOP-92 > 100 µM | HCT-116 > 100 µM
